Each block holds one molecule with its values, some of them ahead of it.
Test system: 422866-222-R5-J1-PDC spheroid viability
Experiment: Anticancer human tumor 422866-222-R5-J1-PDC patient-derived pancreatic adenocarcinoma cell line growth inhibition [CLK]
Settings: spheroids with HUVEC and MSC; for IC50: curve of first compound; for viability, T/C: stronger effect = lower value
Method in brief: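 Multi-cell-type spheroids combined patient-derived tumor cells with HUVEC endothelial cells and human mesenchymal stem cells. Paired agents were dosed in half-log steps down from about clinical Cmax, or from 10 microM where Cmax was unknown.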
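Also: spheroids exposed to agents for seven days before readout.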

- IC50 (second compound 0.0316 µM): > 0.3 µM
- IC50 (second compound 0.1 µM): > 0.3 µM
- IC50 (second compound 0.316 µM): > 0.3 µM
- IC50 (second compound 1 µM): > 0.3 µM
- IC50 (second compound 3.16 µM): > 0.3 µM
- IC50 (second compound 10 µM): > 0.3 µM
Structure (SMILES): C=CC(=O)Nc1cc(Nc2nccc(-c3cn(C)c4ccccc34)n2)c(OC)cc1N(C)CCN(C)C + CNC(=O)c1ccc(Nc2nc(OC3CCCC3)c3c(-c4ccc5nc(C)oc5c4)c[nH]c3n2)c(OC)c1
- viability, T/C (second compound 0.0316 µM, first compound 0.000949 µM): 98.9%
- viability, T/C (second compound 0.0316 µM, first compound 0.003 µM): 98.2%
- viability, T/C (second compound 0.0316 µM, first compound 0.00949 µM): 85.4%
- viability, T/C (second compound 0.0316 µM, first compound 0.03 µM): 79.2%
- viability, T/C (second compound 0.0316 µM, first compound 0.0949 µM): 69.7%
- viability, T/C (second compound 0.0316 µM, first compound 0.3 µM): 77.1%
- viability, T/C (second compound 0.1 µM, first compound 0.000949 µM): 103%
- viability, T/C (second compound 0.1 µM, first compound 0.003 µM): 82.9%
- viability, T/C (second compound 0.1 µM, first compound 0.00949 µM): 74.5%
- viability, T/C (second compound 0.1 µM, first compound 0.03 µM): 71.8%
- viability, T/C (second compound 0.1 µM, first compound 0.0949 µM): 70.7%
- viability, T/C (second compound 0.1 µM, first compound 0.3 µM): 57.1%
- viability, T/C (second compound 0.316 µM, first compound 0.000949 µM): 66.3%
- viability, T/C (second compound 0.316 µM, first compound 0.003 µM): 73.5%
- viability, T/C (second compound 0.316 µM, first compound 0.00949 µM): 68%
- viability, T/C (second compound 0.316 µM, first compound 0.03 µM): 58.7%
- viability, T/C (second compound 0.316 µM, first compound 0.0949 µM): 59.2%
- viability, T/C (second compound 0.316 µM, first compound 0.3 µM): 60.7%
- viability, T/C (second compound 1 µM, first compound 0.000949 µM): 60.8%
- viability, T/C (second compound 1 µM, first compound 0.003 µM): 65.8%
- viability, T/C (second compound 1 µM, first compound 0.00949 µM): 60.9%
- viability, T/C (second compound 1 µM, first compound 0.03 µM): 65.5%
- viability, T/C (second compound 1 µM, first compound 0.0949 µM): 59.3%
- viability, T/C (second compound 1 µM, first compound 0.3 µM): 54.8%
- viability, T/C (second compound 3.16 µM, first compound 0.000949 µM): 52.8%
- viability, T/C (second compound 3.16 µM, first compound 0.003 µM): 61.6%
- viability, T/C (second compound 3.16 µM, first compound 0.00949 µM): 60.4%
- viability, T/C (second compound 3.16 µM, first compound 0.03 µM): 56.4%
- viability, T/C (second compound 3.16 µM, first compound 0.0949 µM): 62.7%
- viability, T/C (second compound 3.16 µM, first compound 0.3 µM): 54.9%
- viability, T/C (second compound 10 µM, first compound 0.000949 µM): 69.6%
- viability, T/C (second compound 10 µM, first compound 0.003 µM): 68.8%
- viability, T/C (second compound 10 µM, first compound 0.00949 µM): 63.5%
- viability, T/C (second compound 10 µM, first compound 0.03 µM): 62.4%
- viability, T/C (second compound 10 µM, first compound 0.0949 µM): 55.6%
- viability, T/C (second compound 10 µM, first compound 0.3 µM): 51.7%

- IC50 (second compound 0.0316 µM): > 10 µM
- IC50 (second compound 0.1 µM): > 10 µM
- IC50 (second compound 0.316 µM): > 10 µM
- IC50 (second compound 1 µM): 4.64 µM
- IC50 (second compound 3.16 µM): > 10 µM
- IC50 (second compound 10 µM): > 10 µM
Structure (SMILES): Nc1ccccc1NC(=O)c1ccc(CNC(=O)OCc2cccnc2)cc1 + CNC(=O)c1ccc(Nc2nc(OC3CCCC3)c3c(-c4ccc5nc(C)oc5c4)c[nH]c3n2)c(OC)c1
- viability, T/C (second compound 0.0316 µM, first compound 0.0316 µM): 115%
- viability, T/C (second compound 0.0316 µM, first compound 0.1 µM): 121%
- viability, T/C (second compound 0.0316 µM, first compound 0.316 µM): 157%
- viability, T/C (second compound 0.0316 µM, first compound 1 µM): 90%
- viability, T/C (second compound 0.0316 µM, first compound 3.16 µM): 68.7%
- viability, T/C (second compound 0.0316 µM, first compound 10 µM): 74.7%
- viability, T/C (second compound 0.1 µM, first compound 0.0316 µM): 106%
- viability, T/C (second compound 0.1 µM, first compound 0.1 µM): 116%
- viability, T/C (second compound 0.1 µM, first compound 0.316 µM): 114%
- viability, T/C (second compound 0.1 µM, first compound 1 µM): 99.8%
- viability, T/C (second compound 0.1 µM, first compound 3.16 µM): 77.9%
- viability, T/C (second compound 0.1 µM, first compound 10 µM): 79.2%
- viability, T/C (second compound 0.316 µM, first compound 0.0316 µM): 82.5%
- viability, T/C (second compound 0.316 µM, first compound 0.1 µM): 76.5%
- viability, T/C (second compound 0.316 µM, first compound 0.316 µM): 77%
- viability, T/C (second compound 0.316 µM, first compound 1 µM): 80.8%
- viability, T/C (second compound 0.316 µM, first compound 3.16 µM): 64.5%
- viability, T/C (second compound 0.316 µM, first compound 10 µM): 50.9%
- viability, T/C (second compound 1 µM, first compound 0.0316 µM): 75.1%
- viability, T/C (second compound 1 µM, first compound 0.1 µM): 67.6%
- viability, T/C (second compound 1 µM, first compound 0.316 µM): 69.1%
- viability, T/C (second compound 1 µM, first compound 1 µM): 60.8%
- viability, T/C (second compound 1 µM, first compound 3.16 µM): 58.5%
- viability, T/C (second compound 1 µM, first compound 10 µM): 39.1%
- viability, T/C (second compound 3.16 µM, first compound 0.0316 µM): 65.7%
- viability, T/C (second compound 3.16 µM, first compound 0.1 µM): 60.2%
- viability, T/C (second compound 3.16 µM, first compound 0.316 µM): 77.6%
- viability, T/C (second compound 3.16 µM, first compound 1 µM): 76.2%
- viability, T/C (second compound 3.16 µM, first compound 3.16 µM): 60.6%
- viability, T/C (second compound 3.16 µM, first compound 10 µM): 49.6%
- viability, T/C (second compound 10 µM, first compound 0.0316 µM): 67.2%
- viability, T/C (second compound 10 µM, first compound 0.1 µM): 60.6%
- viability, T/C (second compound 10 µM, first compound 0.316 µM): 71.9%
- viability, T/C (second compound 10 µM, first compound 1 µM): 61.2%
- viability, T/C (second compound 10 µM, first compound 3.16 µM): 67.3%
- viability, T/C (second compound 10 µM, first compound 10 µM): 48.1%
